Test system: patients with advanced or refractory myeloid leukemias
Experiment: Phase 1 dose-escalation: safety, DLT and MTD
Type: in vivo

Structure (SMILES): CON(C)C(=O)N1N=C(c2cc(F)ccc2F)S[C@@]1(CCCN)c1ccccc1 [ARRY-520]
- MTD, total dose (Schedule 2 (Days 1, 3 and 5)): 4.5 mg/m^2
- died within 30 days following discontinuation of ARRY-520, % (all patients): 17%
- died within 30 days following discontinuation of ARRY-520, patients n (all patients): 6
- Grades 3 or 4 reversible drug-related myelosuppression, patients (human, in vivo): 33/36
- adverse events leading to discontinuation, % of patients (human, in vivo): 8%
- adverse events leading to discontinuation, patients n (human, in vivo): 3
- asymptomatic Grade 1 QTc prolongation, % of patients (human, in vivo): 22%
- asymptomatic Grade 1 QTc prolongation, patients n (human, in vivo): 8
- asymptomatic Grade 2 QTc prolongation, % of patients (human, in vivo): 3%
- asymptomatic Grade 2 QTc prolongation, patients n (human, in vivo): 1
- drug-related SAE bacteremia, % (human, in vivo): 3%
- drug-related SAE diarrhea, % (human, in vivo): 3%
- drug-related SAE exfoliative rash, % (human, in vivo): 3%
- drug-related SAE hyperbilirubinemia, % (human, in vivo): 3%
- drug-related SAE neutropenic fever, % (human, in vivo): 8%
- drug-related SAE palmar-plantar erythrodysesthesia, % (human, in vivo): 6%
- drug-related SAE pancytopenia, % (human, in vivo): 3%
- drug-related SAE stomatitis, % (human, in vivo): 3%
- patients with one or more SAEs related to study drug, % (human, in vivo): 28%
- Dose-limiting toxicities (DLT) (in vivo): mucositis, exfoliative rash, hand-foot syndrome and hyperbilirubinemia
- Neurotoxicity (in vivo): not observed
- other clinically significant ECG changes (in vivo): No other clinically significant ECG changes were observed

Source: PMC4984525 (Cancer, 2011)
